Measured values published in BindingDB's records for doi:10.1021/bi0200514 (Merck Research Laboratories, 2002).
Where “and” joins values, the source holds several entries; their conditions need not be identical. Identical values can stand only once. Positions of bridges follow the written chain, without caps; N, C: chain ends. Non-standard residues stand in square brackets, D forms with d. Residues, ends and D or L forms follow the SMILES beside them. *: point of attachment. Pentanoyl(5-guanidino) = NC(N)=NCCCCC(=O)*; Abu = CC[C@H](N)C(=O)O; Aoc = NCCCCCCCC(=O)O; Ava = NCCCCC(=O)O

Columns and labels:
[1] = molecular target: Melanin-concentrating hormone receptor 2 (Homo sapiens, UniProt Q969V1)
Sequence of Melanin-concentrating hormone receptor 2 (Q969V1 whole entry): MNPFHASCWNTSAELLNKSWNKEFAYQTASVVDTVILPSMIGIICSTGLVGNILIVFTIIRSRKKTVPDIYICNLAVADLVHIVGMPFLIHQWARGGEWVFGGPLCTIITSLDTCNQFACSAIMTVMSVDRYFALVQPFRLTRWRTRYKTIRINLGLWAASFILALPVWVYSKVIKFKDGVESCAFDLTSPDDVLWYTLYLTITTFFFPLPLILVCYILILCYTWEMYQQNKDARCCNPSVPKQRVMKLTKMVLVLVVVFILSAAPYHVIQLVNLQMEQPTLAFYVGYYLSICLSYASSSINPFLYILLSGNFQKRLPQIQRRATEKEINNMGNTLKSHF

[2] = molecular target: Melanin-concentrating hormone receptor 1 (Homo sapiens, UniProt Q99705)
Sequence of Melanin-concentrating hormone receptor 1 (Q99705 as listed by the source): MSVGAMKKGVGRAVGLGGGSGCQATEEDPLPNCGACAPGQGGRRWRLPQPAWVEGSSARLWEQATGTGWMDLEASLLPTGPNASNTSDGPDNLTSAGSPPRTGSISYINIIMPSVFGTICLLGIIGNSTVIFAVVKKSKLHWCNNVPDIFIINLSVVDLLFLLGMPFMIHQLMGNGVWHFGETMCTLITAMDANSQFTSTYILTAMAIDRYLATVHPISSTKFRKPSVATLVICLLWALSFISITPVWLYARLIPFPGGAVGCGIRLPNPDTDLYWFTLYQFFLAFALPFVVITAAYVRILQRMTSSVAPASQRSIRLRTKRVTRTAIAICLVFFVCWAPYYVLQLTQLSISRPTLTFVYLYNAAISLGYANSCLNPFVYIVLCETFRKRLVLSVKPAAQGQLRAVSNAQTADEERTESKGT

Row | SMILES | Ki [1] | Ki [2]
1 | CC(=O)N[C@@H](CCCN=C(N)N)C(=O)N[C@H]1CSSC[C@@H](C(N)=O)NC(=O)CCCCNC(=O)[C@H](Cc2ccc(O)cc2)NC(=O)[C@H](C(C)C)NC(=O)[C@H](CCCN=C(N)N)NC(=O)CNC(=O)[C@H](CC(C)C)NC(=O)[C@H](C)NC1=O [Ala8,Ava14,15] (Ac-RCALGRVY[Ava]C-NH2; disulfide 2-10) | 38 nM | 
2 | CC(=O)N[C@@H](CCCN=C(N)N)C(=O)N[C@H]1CSSC[C@@H](C(N)=O)NC(=O)[C@@H]2CCCN2C(=O)[C@H](CCCN=C(N)N)NC(=O)[C@H](Cc2ccc(O)cc2)NC(=O)[C@H](C(C)C)NC(=O)[C@H](CCCN=C(N)N)NC(=O)CCCCCCCNC1=O [Aoct8,9,10] (Ac-RC[Aoc]RVYRPC-NH2; disulfide 2-9) | 63 nM | 4800 nM
3 | CSCC[C@@H]1NC(=O)[C@@H](NC(=O)[C@H](CCCN=C(N)N)NC(C)=O)CSSC[C@@H](C(N)=O)NC(=O)CCCCNC(=O)[C@H](Cc2ccc(O)cc2)NC(=O)[C@H](C(C)C)NC(=O)[C@H](CCCN=C(N)N)NC(=O)CNC(=O)[C@H](CC(C)C)NC1=O [Ava14,15] | 50 nM | 1.8 nM
4 | CSCC[C@@H]1NC(=O)[C@@H](NC(=O)[C@@H](CCCN=C(N)N)NC(C)=O)CSSC[C@@H](C(N)=O)NC(=O)CCCCNC(=O)[C@H](Cc2ccc(O)cc2)NC(=O)[C@H](C(C)C)NC(=O)[C@H](CCCN=C(N)N)NC(=O)CCCCNC1=O [D-Arg6,Ava9,10,Ava14,15] | 45 nM | 69 nM
5 | CSCC[C@@H]1NC(=O)[C@@H](NC(=O)[C@@H](CCCN=C(N)N)NC(C)=O)CSSC[C@@H](C(N)=O)NC(=O)CCCCNC(=O)[C@H](Cc2ccc(O)cc2)NC(=O)[C@H](C(C)C)NC(=O)[C@H](CCCN=C(N)N)NC(=O)CNC(=O)[C@H](CC(C)C)NC1=O [D-Arg6,Ava14,15] | 65 nM | 11.3 nM
6 | CSCC[C@@H]1NC(=O)[C@H](NC(=O)[C@H](CCCN=C(N)N)NC(C)=O)CSSC[C@@H](C(N)=O)NC(=O)CCCCNC(=O)[C@H](Cc2ccc(O)cc2)NC(=O)[C@H](C(C)C)NC(=O)[C@H](CCCN=C(N)N)NC(=O)CNC(=O)[C@H](CC(C)C)NC1=O [D-Cys7,Ava14,15] | 20 nM | 340 nM
7 | CSCC[C@@H]1NC(=O)[C@@H](NC(=O)CCCN=C(N)N)CSSC[C@@H](C(N)=O)NC(=O)CCCCNC(=O)[C@H](Cc2ccc(O)cc2)NC(=O)[C@H](C(C)C)NC(=O)[C@H](CCCN=C(N)N)NC(=O)CNC(=O)[C@H](CC(C)C)NC1=O [Gbu6,Ava14,15] | 45 nM | 7.9 nM
8 | CSCC[C@@H]1NC(=O)[C@@H](NC(=O)[C@H](CCN=C(N)N)NC(C)=O)CSSC[C@@H](C(N)=O)NC(=O)CCCCNC(=O)[C@H](Cc2ccc(O)cc2)NC(=O)[C@H](C(C)C)NC(=O)[C@H](CCCN=C(N)N)NC(=O)CNC(=O)[C@H](CC(C)C)NC1=O [Gpr6,Ava14,15] | 43 nM | 43 nM
9 | CC(C)C[C@@H]1NC(=O)[C@H](C)NC(=O)[C@@H](NC(=O)CCCCN=C(N)N)CSSC[C@@H](C(N)=O)NC(=O)CCCCNC(=O)[C@H](Cc2ccc(O)cc2)NC(=O)[C@H](C(C)C)NC(=O)[C@H](CCCN=C(N)N)NC(=O)CNC1=O [Gva6,Ala8,Ava14,15] ({Pentanoyl(5-guanidino)}-CALGRVY[Ava]C-NH2; disulfide 1-9) | 33 nM | 83 nM
10 | CSCC[C@@H]1NC(=O)[C@@H](NC(=O)CCCCN=C(N)N)CSSC[C@@H](C(N)=O)NC(=O)CCCCNC(=O)[C@H](Cc2ccc(O)cc2)NC(=O)[C@H](C)NC(=O)[C@H](CCCN=C(N)N)NC(=O)CNC(=O)[C@H](CC(C)C)NC1=O [Gva6,Ala12,Ava14,15] ({Pentanoyl(5-guanidino)}-CMLGRAY[Ava]C-NH2; disulfide 1-9) | 35 nM | 25 nM
11 | CSCC[C@@H]1NC(=O)[C@@H](NC(=O)CCCCN=C(N)N)CSSC[C@@H](C(N)=O)NC(=O)CCCCNC(=O)[C@H](Cc2ccc(O)cc2)NC(=O)[C@H](C(C)C)NC(=O)[C@H](CCCN=C(N)N)NC(=O)CCCCNC1=O [Gva6,Ava9,10,Ava14,15] ({Pentanoyl(5-guanidino)}-CM[Ava]RVY[Ava]C-NH2; disulfide 1-8) | 40 nM | 45 nM
12 | CSCC[C@@H]1NC(=O)[C@@H](NC(=O)CCCCN=C(N)N)CSSC[C@@H](C(N)=O)NC(=O)[C@@H]2CCCN2C(=O)[C@H](CCCN=C(N)N)NC(=O)[C@H](Cc2ccc(O)cc2)NC(=O)[C@H](C(C)C)NC(=O)[C@H](CCCN=C(N)N)NC(=O)CCCCNC1=O [Gva6,Ava9,10] | 48 nM | 5 nM
13 | CSCC[C@@H]1NC(=O)[C@@H](NC(=O)CCCCN=C(N)N)CSSC[C@@H](C(=O)O)NC(=O)CCCCNC(=O)[C@H](Cc2ccc(O)cc2)NC(=O)[C@H](C(C)C)NC(=O)[C@H](CCCN=C(N)N)NC(=O)CNC(=O)[C@H](CC(C)C)NC1=O [Gva6,Ava14,15, OH] | 38 nM | 66 nM
14 | CSCC[C@@H]1NC(=O)[C@H](NC(=O)CCCCN=C(N)N)CSSC[C@@H](C(N)=O)NC(=O)CCCCNC(=O)[C@H](Cc2ccc(O)cc2)NC(=O)[C@H](C(C)C)NC(=O)[C@H](CCCN=C(N)N)NC(=O)CNC(=O)[C@H](CC(C)C)NC1=O [Gva6,D-Cys7,Ava14,15] | 25 nM | 120 nM
15 | CCCC[C@@H]1NC(=O)[C@@H](NC(=O)CCCCN=C(N)N)CSSC[C@@H](C(N)=O)NC(=O)CCCCNC(=O)[C@H](Cc2ccc(O)cc2)NC(=O)[C@H](C(C)C)NC(=O)[C@H](CCCN=C(N)N)NC(=O)CNC(=O)[C@H](CC(C)C)NC1=O [Gva6,Nle8,Ava14,15] | 70 nM | 4.7 nM
16 | CC[C@@H]1NC(=O)[C@@H](NC(=O)CCCCN=C(N)N)CSSC[C@@H](C(N)=O)NC(=O)CCCCNC(=O)[C@H](Cc2ccc(O)cc2)NC(=O)[C@H](C(C)C)NC(=O)[C@H](CCCN=C(N)N)NC(=O)CNC(=O)[C@H](CC(C)C)NC1=O [Gva6,alphaAbu8,Ava14,15] ({Pentanoyl(5-guanidino)}-C[Abu]LGRVY[Ava]C-NH2; disulfide 1-9) | 43 nM | 320 nM
17 | CSCC[C@@H]1NC(=O)[C@@H](NC(=O)CCCCN=C(N)N)CSSC[C@@H](C(N)=O)NC(=O)[C@H]2CC[C@H](CC2)NC(=O)[C@H](Cc2ccc(O)cc2)NC(=O)[C@H](C(C)C)NC(=O)[C@H](CCCN=C(N)N)NC(=O)CNC(=O)[C@H](CC(C)C)NC1=O [Gva6,cisAcx14,15] | 3100 nM | 10 nM
18 | CSCC[C@@H]1NC(=O)[C@@H](NC(=O)CCCCN=C(N)N)CSSC[C@@H](C(N)=O)NC(=O)CCCCNC(=O)[C@H](Cc2ccc(O)cc2)NC(=O)[C@H](C(C)C)NC(=O)[C@H](CCCN=C(N)N)NC(=O)CNC1=O [Gva6,desLeu9,Ava14,15] ({Pentanoyl(5-guanidino)}-CMGRVY[Ava]C-NH2; disulfide 1-8) | 20 nM | 1350 nM
19 | CSCC[C@@H]1NC(=O)[C@@H](NC(=O)CCCCN=C(N)N)CSSC[C@@H](C(N)=O)NC(=O)CCCNC(=O)[C@H](Cc2ccc(O)cc2)NC(=O)[C@H](C(C)C)NC(=O)[C@H](CCCN=C(N)N)NC(=O)CNC(=O)[C@H](CC(C)C)NC1=O [Gva6,gammaAbu14,15] | 48 nM | 24 nM
20 | CSCC[C@@H]1NC(=O)[C@@H](N)CSSC[C@@H](C(N)=O)NC(=O)CCCCNC(=O)[C@H](Cc2ccc(O)cc2)NC(=O)[C@H](C(C)C)NC(=O)[C@H](CCCN=C(N)N)NC(=O)CNC(=O)[C@H](CC(C)C)NC1=O [des(Ac-Arg6),Ava14,15] | 77 nM and 48 nM | 300 nM and 190 nM
21 | CSCC[C@@H]1NC(=O)[C@@H](NC(=O)[C@H](CCCNC(=N)N)NC(C)=O)CSSC[C@@H](C(N)=O)NC(=O)[C@@H]2CCCN2C(=O)[C@H](CCCNC(=N)N)NC(=O)[C@H](Cc2ccc(O)cc2)NC(=O)[C@H](C(C)C)NC(=O)[C@H](CCCNC(=N)N)NC(=O)CNC(=O)[C@H](CC(C)C)NC1=O [hAc-MCH(6-16)-NH2] | 2.7 nM | 0.16 nM
22 | CSCC[C@@H]1NC(=O)[C@@H](NC(=O)[C@H](CCCNC(=N)N)NC(=O)[C@H](CC(C)C)NC(=O)[C@H](CCSC)NC(=O)[C@H](CC(=O)O)NC(=O)[C@H](Cc2ccccc2)NC(=O)[C@@H](N)CC(=O)O)CSSC[C@@H](C(=O)N[C@@H](Cc2c[nH]c3ccccc23)C(=O)N[C@@H](CCC(N)=O)C(=O)N[C@H](C(=O)O)C(C)C)NC(=O)[C@@H]2CCCN2C(=O)[C@H](CCCNC(=N)N)NC(=O)[C@H](Cc2ccc(O)cc2)NC(=O)[C@H](C(C)C)NC(=O)[C@H](CCCNC(=N)N)NC(=O)CNC(=O)[C@H](CC(C)C)NC1=O [hMCH] | 2.9 nM | 
